Experimental data: PMC9814779, “A triple farnesoid X receptor and peroxisome proliferator-activated receptor α/δ activator reverses hepatic fibrosis in diet-induced NASH in mice” (Communications Chemistry, 2020)

Test system: HEK293T and U2OS cells
Test: Multiplex high-content live-cell toxicity assay
Type: cell-based
Conditions: seven concentrations between 100 nM and 100 µM; 2, 12 and 24 h
Protocol: Before proof-of-concept in vivo evaluation, we profiled stability and cytotoxicity of the triple modulator 41 in vitro. […] To determine cytotoxicity, we employed a multiplex high-content life-cell imaging screen[24] on HEK293T and U2OS cells. For this, the cells were treated with fluorescent probes to detect Annexin V as apoptosis marker (Annexin V Alexa488), dead cells (Yo-Pro3), and DNA/nucleus (Hoechst33342). Cells were then incubated with 41, OCA, or elafibranor at seven concentrations between 100 nM and 100 µM, and cell health was determined by fluorescence imaging after 2, 12, and 24 h (Fig. 6g–i and Supplementary Fig. 5).
Supplementary Methods for in Vitro Characterization
Cytotoxicity was assessed in a high content screen on two different cell lines, HEK293T (ATCC® CRL-1573™) and U2OS (ATCC®HTB-96™), essentially as described previously6. In brief, cells were cultured in DMEM plus L-Glutamine (high glucose) supplemented with 10 % FBS (Gibco) and Penicillin/Streptomycin (Gibco). […]
After 2 h, 12 h and 24 h, cellular shape and fluorescence was analyzed on an automated, high-content confocal microscope (CQ1, Yokogawa). […]
50 ms, 40%; bright field, 300ms, 100% transmission, one centered field per well, 7 z stacks per well with 55 µm spacing. Images were analyzed with the Pathfinder software (Yokogawa). Cells were detected and gated as previously described6. […]
The solubilized test compound (5 μL, final concentration 10 μM in phosphate buffer (0.1 M, pH 7.4)) was preincubated at 37 °C in 432 μL of phosphate buffer (0.1 M, pH 7.4) together with a 50 μL NADPH regenerating system (30 mM glucose-6-phosphate, 4 U/mL glucose-6-phosphate dehydrogenase, 10 mM NADP, 30 mM MgCl2). […] The supernatants were analyzed and test compound was quantified by HPLC: mobile phase: MeOH 83%/H2O 17%/formic acid 0.1%; flow-rate: 1 mL/min; stationary phase: MultoHigh Phenyl phase, 5 μm, 250×4, precolumn, phenyl, 5 μm, 20×4; detection wavelength: 330 and 254 nm; injection volume: 50 μL. […]

SMILES | cytotoxicity (cell health, apoptosis, necrosis, lysis)
CC[C@H]1[C@@H](O)[C@@H]2[C@H](CC[C@]3(C)[C@@H]([C@H](C)CCC(=O)O)CC[C@@H]23)[C@@]2(C)CC[C@@H](O)C[C@@H]12 [OCA, 6α-ethylchenodeoxycholic acid, reference compound] | non-toxic up to 100 µM concentration over 24 h
CC(C)(C)c1ccc(C(=O)Nc2cccc(CCC(=O)O)c2)c(NC(=O)c2ccc(-c3ccco3)cc2)c1 [compound 41, 3-(3-[4-{tert-Butyl}-2-{4-(2-furyl)}benzamido]phenyl)propanoic acid] | no notable toxic effects up to high 100 µM concentration
